In ChEMBL document CHEMBL4190370, “Emerging New Targets for the Treatment of Resistant Fungal Infections” (J Med Chem, 2018):

Legend:
HepG2 = assay: Cytotoxicity in human HepG2 cells; format: cell-based
[1] = biological target: T1, Mediator of RNA polymerase II transcription subunit 15 (Candida glabrata (strain ATCC 2001 / CBS 138 / JCM 3761 / NBRC 0622 /NRRL Y-65) (Yeast) (Torulopsis glabrata), UniProt Q6FRS9); assay: Binding affinity to Candida glabrata Gal11A KIX domain; parameters: species or system Nakaseomyces glabratus
T1 sequence (Q6FRS9 whole entry): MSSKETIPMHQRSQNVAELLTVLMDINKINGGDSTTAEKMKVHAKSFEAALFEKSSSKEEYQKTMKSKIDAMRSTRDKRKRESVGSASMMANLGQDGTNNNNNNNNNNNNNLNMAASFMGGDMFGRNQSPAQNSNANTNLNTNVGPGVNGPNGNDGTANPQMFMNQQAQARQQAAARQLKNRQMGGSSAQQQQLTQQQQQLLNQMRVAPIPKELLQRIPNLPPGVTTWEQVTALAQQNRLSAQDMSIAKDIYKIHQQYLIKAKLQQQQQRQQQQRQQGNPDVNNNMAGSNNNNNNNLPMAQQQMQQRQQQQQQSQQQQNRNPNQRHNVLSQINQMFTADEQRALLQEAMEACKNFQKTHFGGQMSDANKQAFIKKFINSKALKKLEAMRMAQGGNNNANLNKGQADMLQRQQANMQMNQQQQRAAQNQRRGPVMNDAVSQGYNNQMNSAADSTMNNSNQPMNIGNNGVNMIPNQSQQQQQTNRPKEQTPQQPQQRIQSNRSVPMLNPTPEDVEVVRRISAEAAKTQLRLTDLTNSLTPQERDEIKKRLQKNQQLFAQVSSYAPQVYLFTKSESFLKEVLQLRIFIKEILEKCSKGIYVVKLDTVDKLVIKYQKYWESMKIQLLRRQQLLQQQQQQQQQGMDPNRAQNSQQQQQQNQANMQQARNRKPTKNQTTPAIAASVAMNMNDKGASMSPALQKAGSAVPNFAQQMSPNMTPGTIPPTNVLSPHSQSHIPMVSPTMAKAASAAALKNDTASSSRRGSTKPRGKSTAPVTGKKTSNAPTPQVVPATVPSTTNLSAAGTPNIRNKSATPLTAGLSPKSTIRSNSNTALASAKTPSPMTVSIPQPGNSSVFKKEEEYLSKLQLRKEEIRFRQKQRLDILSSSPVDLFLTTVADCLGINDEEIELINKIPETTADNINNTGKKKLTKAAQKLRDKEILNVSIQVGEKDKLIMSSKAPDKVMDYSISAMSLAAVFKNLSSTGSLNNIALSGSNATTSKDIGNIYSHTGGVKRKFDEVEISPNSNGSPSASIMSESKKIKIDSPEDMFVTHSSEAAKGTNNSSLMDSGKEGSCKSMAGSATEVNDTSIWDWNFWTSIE

[2] = Inhibition of Saccharomyces cerevisiae LeuRs
[3] = Oral bioavailability in rabbit; format: ADME, organism-based, Oryctolagus cuniculus; settings: in vivo
[4] = Oral bioavailability in dog; format: ADME, organism-based, Canis lupus familiaris; settings: in vivo
[5] = Half life in human; format: ADME, organism-based; settings: in vivo
[6] = Inhibition of Saccharomyces cerevisiae IleRS
[7] = Oral bioavailability in rat; format: ADME, organism-based; settings: in vivo
Candida [8] = assay: Antifungal activity against Candida; format: functional
Candida [9] = assay: Antifungal activity against Candida sp.; format: functional

N#CCC(=O)NNC(=S)Nc1ccc(Cl)c(Cl)c1
IC50 (HepG2): 100 µM
Kd [1]: 320 nM

OB1OCc2cc(F)ccc21 [TAVABOROLE]
IC50 [2]: 2100 nM

C=C1C[C@H](N)[C@H](C(=O)O)C1 [ICOFUNGIPEN]
bioavailability [3]: 100%
bioavailability [4]: 100%
half-life [5]: 420 min
Ki [6]: 1 mM
bioavailability [7]: 100%

CN(C)c1ccc(/C=C/c2cc(C(C)(C)C)[o+]c(C(C)(C)C)c2)cc1.[O-][Cl+3]([O-])([O-])[O-]
MIC (Candida [8]): 0.2 to 6.25 µg/mL
MIC (Candida [9]): 0.5 to 1 µg/mL
